In patent US20230374007A1, “COMPOUNDS AND THEIR USE IN TREATING CANCER” (AstraZeneca AB, priority 2020, published 2023):

These molecules were tested against T1, cereblon (CRBN)—DNA damage protein 1 (DDB1) complex (Homo sapiens, UniProt Q96SW2) (assay: Cereblon HTRF binding assay).
T1 construct: encoding amino acid residues 1 to 442 (Uniprot Q96SW2); hexahistidine (N); thrombin cleavage site (N); made in house; host or cells: Sf9 insect cells (baculovirus co-infection)
T1 sequence (Q96SW2 with tags, fused parts or gaps): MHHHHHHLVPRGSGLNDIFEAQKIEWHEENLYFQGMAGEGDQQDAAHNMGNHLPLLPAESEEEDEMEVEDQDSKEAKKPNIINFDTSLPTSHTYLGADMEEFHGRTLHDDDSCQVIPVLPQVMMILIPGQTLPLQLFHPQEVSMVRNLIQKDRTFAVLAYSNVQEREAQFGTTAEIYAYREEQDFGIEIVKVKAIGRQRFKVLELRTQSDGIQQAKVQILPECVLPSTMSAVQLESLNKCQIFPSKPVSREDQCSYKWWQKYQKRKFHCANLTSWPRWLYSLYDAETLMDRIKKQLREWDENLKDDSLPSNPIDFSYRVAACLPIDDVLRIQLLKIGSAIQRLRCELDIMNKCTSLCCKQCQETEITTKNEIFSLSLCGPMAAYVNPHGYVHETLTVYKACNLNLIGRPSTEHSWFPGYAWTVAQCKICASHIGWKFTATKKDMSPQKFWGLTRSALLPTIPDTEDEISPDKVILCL
Excerpt: The synthesized sequence was designed to encode an N-terminal hexahistidine tag, a thrombin cleavage site, an AviTag™ and a tobacco etch virus protease (TEV) cleavage site followed by the CBRN sequence. The resulting protein sequence is listed below.
The synthesized sequence was designed to encode an N-terminal hexahistidine tag, a tobacco etch virus protease (TEV) cleavage site followed by the DDB1 sequence. […] The linker amino acid residues are underlined and shown in italics.
Baculovirus production of CBRN and DDB1: Recombinant bacmid and P2 virus of CBRN and DDB1 was generated according to the Bac-to-Bac Baculovirus Expression System manual (ThermoFisher Scientific).
Protein Purification: Protein purification was initiated by thawing cells (resuspended in Lysis buffer) at r.t. Once thawed, NaCl was added to a final concentration of 200 mM, followed by 0.01 μL/mL Benzonase™ and the lysate was incubated with slow stirring for 20 minutes. After the freeze-thaw lysis, the whole cell lysate was centrifuged at 48 000 g for 45 minutes and all following purification steps were done on ice or in cold-room. Supernatant (cell lysate) was mixed with 1 mL/50 mL lysate Ni Sepharose™ 6 Fast Flow (Cytiva) pre-equilibrated with Wash buffer (50 mM Tris-Cl pH 8, 20 mM Imidazole, 500 mM NaCl, 10% Glycerol, 1 mM TCEP) and incubated with slow stirring for 1 h. The mix was loaded in a 70 mL open gravity flow column, washed with 10 bed volumes of Wash buffer, and stepwise eluted with 300 mM imidazole in Wash buffer. […] After biotinylation, the CBRN/DDB1 complex was purified by Size Exclusion Chromatography on a HiLoad™ 26/60 Superdex™ 200 column equilibrated in SEC buffer (50 mM HEPES pH 7.5, 200 mM NaCl, 5% glycerol, 1 mM TCEP) before flash-freezing in liquid nitrogen and storage at −80° C.
The assay mixture in a total volume of 4 μL consists of 50 mM Tris-HCl at pH 7.5, 100 mM NaCl, 0.01% Pluronic F127, 1 mM TCEP, 500 μM EDTA, 0.2 nM CRBN-DDB1, 0.2 nM terbium cryptate labeled streptavidin, and 2 nM Cyanine 5-labeled lenalidomide as the probe. […] Reagents were dispensed into the 384-well assay microplate using a Certus Flex liquid dispenser. After incubation for 2 h at r.t., the assay plates were read on a PHERAstar FSX plate reader (BMG Labtech) in the HTRF mode. The raw data from PHERAstar was directly imported into Genedata Screener for analysis. […] The ratio was normalized to positive and negative controls on the same plates to calculate percent inhibition: I %=(I−NC)/(PC−NC), where I are readings from the compound treated well, NC and PC are average readings from negative control wells and positive control wells, respectively. IC50 values were obtained by fitting the I % vs. compound concentration [I] to I %=S0+(SInf−S0)/(1+((IC50/[I])^n)), where S0 is the fitted activity level at zero concentration of test compound, SInf is the fitted activity level at […] concentration of test compound, and n is the hill coefficient of the curve.
The IC50 values reported below are the calculated mean result of one or more experiments.
`Cn1ccc2c(N3CCC(=O)NC3=O)cc(N3CCNCC3)cc21` [Example 90, 1-(1-Methyl-6-(piperazin-1-yl)-1H-indol-4-yl)dihydropyrimidine-2,4 (1H,3H)-dione] showed an IC50 of 771 nM.
In the case of `O=C1CCN(c2ccc3nc(N4CCNCC4)oc3c2)C(=O)N1` [Example 98, 1-(2-(Piperazin-1-yl)benzo[d]oxazol-6-yl)dihydropyrimidine-2,4 (1H,3H)-dione], the IC50 is reported as 3120 nM.
Molecule `CN1CCC(c2cn(C)c3cc(N4CCC(=O)NC4=O)ccc23)CC1` [Example 119, 1-(1-Methyl-3-(1-methylpiperidin-4-yl)-1H-indol-6-yl)dihydropyrimidine-2,4 (1H,3H)-dione] has an IC50 of 1450 nM.
With `COc1cc(N2CCC(=O)NC2=O)c2ccn(C)c2c1` [Example 16, 1-(6-Methoxy-1-methyl-1H-indol-4-yl)dihydropyrimidine-2,4 (1H,3H)-dione] the IC50 was 211 nM.
Work on `Cc1c(N2CCC(=O)NC2=O)c(F)cc2cc[nH]c12` [Example 58, 1-(5-Fluoro-7-methyl-1H-indol-6-yl)dihydropyrimidine-2,4 (1H,3H)-dione] yielded an IC50 of 288 nM.
With `Cn1ccc2cc(N3CCC(=O)NC3=O)cnc21` [Example 11, 1-(1-Methyl-1H-pyrrolo[2,3-b]pyridin-5-yl)dihydropyrimidine-2,4 (1H,3H)-dione] the IC50 was 26900 nM.
In the case of `O=C1CCN(c2ccc3sc(N4CCNCC4)nc3c2)C(=O)N1` [Example 100, 1-(2-(Piperazin-1-yl)benzo[d]thiazol-5-yl)dihydropyrimidine-2,4 (1H,3H)-dione], the IC50 is reported as 1070 nM.
Molecule `CNC(=O)Cn1ccc2ccc(N3CCC(=O)NC3=O)cc21` [Example 68, 2-(6-(2,4-Dioxotetrahydropyrimidin-1 (2H)-yl)-1H-indol-1-yl)-N-methylacetamide] has an IC50 of 2210 nM.
For `O=C1CCN(c2ccc3c(c2)CCCN3)C(=O)N1` [Example 26, 1-(1,2,3,4-Tetrahydroquinolin-6-yl)dihydropyrimidine-2,4 (1H,3H)-dione], the IC50 was 1490 nM.
With `Cn1ccc2c(N3CCC(=O)NC3=O)ccc(N3CCNCC3)c21` [Example 125, 1-(1-Methyl-7-(piperazin-1-yl)-1H-indol-4-yl)dihydropyrimidine-2,4 (1H,3H)-dione] the IC50 was 458 nM.
Work on `COc1cc(N2CCC(=O)NC2=O)cc2[nH]ccc12` [Example 52, 1-(4-Methoxy-1H-indol-6-yl)dihydropyrimidine-2,4 (1H,3H)-dione] yielded an IC50 of 445 nM.
With `O=C1CCN(c2ccc3nn(C4CCNCC4)cc3c2)C(=O)N1` [Example 107, 1-(2-(Piperidin-4-yl)-2H-indazol-5-yl)dihydropyrimidine-2,4 (1H,3H)-dione] the IC50 was 3780 nM.
`O=C1CCN(c2cnc3ccoc3c2)C(=O)N1` [Example 37, 1-(Furo[3,2-b]pyridin-6-yl)dihydropyrimidine-2,4 (1H,3H)-dione] showed an IC50 of 3100 nM.
Molecule `CN1CCC(n2ncc3cc(N4CCC(=O)NC4=O)ccc32)CC1` [Example 108, 1-(1-(1-Methylpiperidin-4-yl)-1H-indazol-5-yl)dihydropyrimidine-2,4 (1H,3H)-dione] has an IC50 of 3810 nM.
For `O=C1CCN(c2ccc3[nH]cc(N4CCNCC4)c3c2)C(=O)N1` [Example 77, 1-(3-(Piperazin-1-yl)-1H-indol-5-yl)dihydropyrimidine-2,4 (1H,3H)-dione], the IC50 was 562 nM.
`CN1CCC(n2cc3ccc(-n4ccc(=O)[nH]c4=O)cc3n2)CC1` [Example 132, 1-(2-(1-Methylpiperidin-4-yl)-2H-indazol-6-yl)pyrimidine-2,4 (1H,3H)-dione] gave an IC50 of 2160 nM.
`CN1CCC(c2cc3ccc(N4CCC(=O)NC4=O)cc3[nH]2)CC1` [Example 82, 1-(2-(1-Methylpiperidin-4-yl)-1H-indol-6-yl)dihydropyrimidine-2,4 (1H,3H)-dione] gave an IC50 of 168 nM.
`Cc1c(-n2ccc(=O)[nH]c2=O)cnc2cc[nH]c12` [Example 48, 1-(7-Methyl-1H-pyrrolo[3,2-b]pyridin-6-yl)pyrimidine-2,4 (1H,3H)-dione] showed an IC50 of 1970 nM.
`CN1CCN(c2c[nH]c3ccc(N4CCC(=O)NC4=O)cc23)CC1` [Example 78, 1-(3-(4-Methylpiperazin-1-yl)-1H-indol-5-yl)dihydropyrimidine-2,4 (1H,3H)-dione] showed an IC50 of 1870 nM.
`O=C1CCN(c2ccc3c(c2)CNCC3)C(=O)N1` [Example 28, 1-(1,2,3,4-Tetrahydroisoquinolin-7-yl)dihydropyrimidine-2,4 (1H,3H)-dione] was tested, and the IC50 was 17000 nM.
Molecule `CC(=O)N1CCC(c2c[nH]c3cc(N4CCC(=O)NC4=O)ccc23)CC1` [Example 118, 1-(3-(1-Acetylpiperidin-4-yl)-1H-indol-6-yl)dihydropyrimidine-2,4 (1H,3H)-dione] has an IC50 of 389 nM.
With `O=C1CCN(c2cc3[nH]ccc3cc2F)C(=O)N1` [Example 60, 1-(5-Fluoro-1H-indol-6-yl)dihydropyrimidine-2,4 (1H,3H)-dione] the IC50 was 444 nM.
`O=c1ccn(-c2ccc3cn(C4CCNCC4)nc3c2)c(=O)[nH]1` [Example 131, 1-(2-(Piperidin-4-yl)-2H-indazol-6-yl)pyrimidine-2,4 (1H,3H)-dione] showed an IC50 of 2130 nM.
Work on `O=C1CCN(c2ccc3c(c2)C(=O)NC3)C(=O)N1` [Example 44, 1-(3-Oxoisoindolin-5-yl)dihydropyrimidine-2,4 (1H,3H)-dione] yielded an IC50 of 8470 nM.
With `Cc1c(N2CCC(=O)NC2=O)ccc2cc[nH]c12` [Example 57, 1-(7-Methyl-1H-indol-6-yl)dihydropyrimidine-2,4 (1H,3H)-dione] the IC50 was 96 nM.
For `Cn1cc(N2CCNCC2)c2ccc(N3CCC(=O)NC3=O)cc21` [Example 74, 1-(1-Methyl-3-(piperazin-1-yl)-1H-indol-6-yl)dihydropyrimidine-2,4 (1H,3H)-dione], the IC50 was 3810 nM.
`O=C1CCN(c2ccc3cc(C4CCNCC4)[nH]c3c2)C(=O)N1` [Example 81, 1-(2-(Piperidin-4-yl)-1H-indol-6-yl)dihydropyrimidine-2,4 (1H,3H)-dione] showed an IC50 of 65 nM.
In the case of `O=C1CCN(c2ccc3c(N4CCNCC4)c[nH]c3c2)C(=O)N1` [Example 71, 1-(3-(Piperazin-1-yl)-1H-indol-6-yl)dihydropyrimidine-2,4 (1H,3H)-dione], the IC50 is reported as 1130 nM.
In the case of `CC(=O)N1CCN(c2c[nH]c3cc(N4CCC(=O)NC4=O)ccc23)CC1` [Example 73, 1-(3-(4-Acetylpiperazin-1-yl)-1H-indol-6-yl)dihydropyrimidine-2,4 (1H,3H)-dione], the IC50 is reported as 963 nM.
With `CN1CCC(n2ccc3cc(N4CCC(=O)NC4=O)ccc32)CC1` [Example 114, 1-(1-(1-Methylpiperidin-4-yl)-1H-indol-5-yl)dihydropyrimidine-2,4 (1H,3H)-dione] the IC50 was 1050 nM.
With `O=C1CCN(c2c(Cl)ccc3[nH]ccc23)C(=O)N1` [Example 64, 1-(5-Chloro-1H-indol-4-yl)dihydropyrimidine-2,4 (1H,3H)-dione] the IC50 was 78 nM.
`CN1CCn2c(cc3cc(N4CCC(=O)NC4=O)ccc32)C1` [Example 105, 1-(2-Methyl-1,2,3,4-tetrahydropyrazino[1,2-a]indol-8-yl)dihydropyrimidine-2,4 (1H,3H)-dione] was tested, and the IC50 was 460 nM.
`Cn1c(C2CCNCC2)cc2ccc(N3CCC(=O)NC3=O)cc21` [Example 84, 1-(1-Methyl-2-(piperidin-4-yl)-1H-indol-6-yl)dihydropyrimidine-2,4 (1H,3H)-dione] was tested, and the IC50 was 357 nM.
`O=C1CCN(c2ccc(N3CCNCC3)c3[nH]ccc23)C(=O)N1` [Example 123, 1-(7-(Piperazin-1-yl)-1H-indol-4-yl)dihydropyrimidine-2,4 (1H,3H)-dione] gave an IC50 of 597 nM.
`CN1CCn2c(cc3ccc(N4CCC(=O)NC4=O)cc32)C1` [Example 103, 1-(2-Methyl-1,2,3,4-tetrahydropyrazino[1,2-a]indol-7-yl)dihydropyrimidine-2,4 (1H,3H)-dione] was tested, and the IC50 was 682 nM.
`O=C1CCN(c2ccc3[nH]c(=O)oc3c2)C(=O)N1` [Example 46, 1-(2-Oxo-2,3-dihydrobenzo[d]oxazol-6-yl)dihydropyrimidine-2,4 (1H,3H)-dione] was tested, and the IC50 was 3750 nM.
Molecule `O=c1ccn(-c2ccc3cc[nH]c3c2)c(=O)[nH]1` [Example 13, 1-(1H-Indol-6-yl)pyrimidine-2,4 (1H,3H)-dione] has an IC50 of 765 nM.
